# Laboratory results: patent publication US20250186391A1, “ORAL COMPLEMENT FACTOR D INHIBITORS” (BioCryst Pharmaceuticals, Inc., priority 2019, published 2025)
# Molecular target: Factor D (Homo sapiens (Human), UniProt P00746)
# Experiment: Factor D esterolytic assay
# Type: biochemical
# Conditions: Z-Lys-SBzl substrate, 100 mM HEPES, 500 mM NaCl, pH 7.5, 10% DMSO; tested a minimum of three times; read-out: Measured Ki (IC50) Value for Compounds: IC50
# Experimental: The IC50 value of a compound (i.e., the concentration of the compound that inhibits 50% of the enzymatic activity) was calculated according to the procedure reported in U.S. Pat. No. 6,653,340 B1, e.g., column 74 (incorporated by reference).
# Specifically, the compounds were dissolved in a stock solution of DMSO at 10.0 or 100 mM. A portion of this stock solution was added to assay buffer in a final volume of 50 μL. Controls included buffer alone and enzyme solutions to which DMSO was added. Substrate was added to the reaction wells immediately or after incubation at room temperature. The reaction rates were measured spectrophotometrically by the generation of product at 405 nm for 600 sec. Background absorbance at 690 nm was measured and subtracted from the absorbance at 405 nm for each well.
# The reaction rate for enzyme alone was compared to the rate of enzyme in the presence of inhibitor and the percent inhibition was calculated as shown below: […]
# An established esterolytic assay for the measurement of Factor D activity and inhibition of Factor D activity was used (Kam, C. M.; McRae, B. J.; Harper, J. W.; Niemann, M. A.; Volanakis, J. E.; Powers, J. C. Human complement proteins D, C2, and B Active site mapping with peptide thioester substrates. J Biol. Chem. 1987, 262, 3444-3451). For this assay Z-Lys-SBzl, 1.29 mM (Kim, S.; Narayana, S. V. L; Volanakis, J. E. Mutational analysis of the substrate binding site of human complement Factor D. Biochemistry. 1994, 33, 14393-14399.) was used as the substrate for Factor D ([…]). Hydrolysis of this compound by Factor D liberated a free sulfhydryl group which is then reacted with 5,5′-dithiobis(2nitrobenzoic acid) producing an intense yellow color (Habeeb, A. F. S. A. Reaction of protein sulfhydryl groups with Ellman's Reagent. Methods in Enzymol. 1976, 25, 457-464.). The assays were performed in 96 well microtiter plates and rates of hydrolysis were monitored at 405 nm on a Biotek Synergy H1 plate reader. Hydrolysis rates were reported as change in mOD/min. The assay was conducted in 100 mM HEPES, 500 mM NaCl, pH 7.5 containing 10% DMSO in a final volume of 50 μL per well.
# An IC50, a compound concentration which inhibits 50% of the enzymatic activity, was calculated. Compounds in the examples were tested a minimum of three times.
# Factor D, sequence (P00746 26-253): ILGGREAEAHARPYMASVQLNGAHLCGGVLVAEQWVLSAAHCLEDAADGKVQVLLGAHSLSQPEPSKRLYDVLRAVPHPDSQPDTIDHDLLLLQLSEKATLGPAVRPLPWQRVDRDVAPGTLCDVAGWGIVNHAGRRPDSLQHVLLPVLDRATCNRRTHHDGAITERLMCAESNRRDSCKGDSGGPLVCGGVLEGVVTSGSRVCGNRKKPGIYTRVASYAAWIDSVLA
row,Compound,IC50 [nM]
1,"NCc1cccc(-c2cc(COc3ccccc3CCC(=O)O)cc3cc(COc4ccccc4CC(=O)O)oc23)c1 [Compound 15e, 3-(2-((7-(3-(aminomethyl)phenyl)-2-((2-(carboxymethyl)phenoxy)methyl)benzofuran-5-yl)methoxy)phenyl)propanoic acid]",< 1000
2,"COc1ccc(CC(=O)O)c(OCc2c(C(F)F)oc3c(NCC4CC4)cc(-c4cccc(CN)c4)cc23)c1 [Compound 236c, 2-(2-((5-(3-(aminomethyl)phenyl)-7-((cyclopropylmethyl)amino)-2-(difluoromethyl)benzofuran-3-yl)methoxy)-4-methoxyphenyl)acetic acid]",< 1000
3,"CC(Oc1ccccc1CC(=O)O)c1coc2ccc(-c3cccc(CN)c3)cc12 (stereo not drawn) [Compound 119d, 2-(2-(1-(5-(3-(aminomethyl)phenyl)benzofuran-3-yl)ethoxy)phenyl)acetic acid]",< 1000
4,"COc1ccc(CC(=O)O)c(OCc2c(C3CC3)oc3ccc(-c4cccc(CN)c4)cc23)c1 [Compound 247c, 2-(2-((5-(3-(aminomethyl)phenyl)-2-cyclopropylbenzofuran-3-yl)methoxy)-4-methoxyphenyl)acetic acid]",< 1000
5,"COc1ccc(CC(=O)O)c(OCc2coc3c(OCC4CC4)cc(-c4cccc(CN)c4)cc23)c1 [Compound 160c, 2-(2-((5-(3-(aminomethyl)phenyl)-7-(cyclopropylmethoxy)benzofuran-3-yl)methoxy)-4-methoxyphenyl)acetic acid]",< 1000
6,"COCCc1oc2ccc(-c3cccc(CN)c3)cc2c1COc1cc(OC)ccc1CC(=O)O [Compound 238c, 2-(2-((5-(3-(aminomethyl)phenyl)-2-(2-methoxyethyl)benzofuran-3-yl)methoxy)-4-methoxyphenyl)acetic acid]",< 1000
7,"COc1ccc(CC(=O)O)c(OCc2coc3c(NCC4CCCC4)cc(-c4cccc(CN)c4)cc23)c1 [Compound 277c, 2-(2-((5-(3-(aminomethyl)phenyl)-7-((cyclopentylmethyl)amino)benzofuran-3-yl)methoxy)-4-methoxyphenyl)acetic acid]",< 1000
8,"Cc1cccc(C)c1-c1cc(-c2cccc(CN)c2)cc2c(COc3ccccc3CC(=O)O)coc12 [Compound 220c, 2-(2-((5-(3-(aminomethyl)phenyl)-7-(2,6-dimethylphenyl)benzofuran-3-yl)methoxy)phenyl)acetic acid]",< 1000
9,"NCc1cccc(-c2ccc3occ(COc4c(CN)cccc4CC(=O)O)c3c2)c1 [Compound 145c, 2-(3-(aminomethyl)-2-((5-(3-(aminomethyl)phenyl)benzofuran-3-yl)methoxy)phenyl)acetic acid]",< 1000
10,"NCc1cccc(-c2ccc3[nH]nc(C(=O)Nc4ccccc4CC(=O)O)c3c2)c1 [Compound 78e, 2-(2-(5-(3-(aminomethyl)phenyl)-1H-indazole-3-carboxamido)phenyl)acetic acid]",< 1000
11,"CCc1oc2ccc(-c3cccc(CN)c3)cc2c1COc1cc(OC)ccc1CC(=O)O [Compound 225e, 2-(2-((5-(3-(aminomethyl)phenyl)-2-ethylbenzofuran-3-yl)methoxy)-4-methoxyphenyl)acetic acid]",< 1000
12,"CC(C)(C)OC(=O)N1CCN(Cc2cc(-c3cccc(CN)c3)cc3c(COc4ccccc4CC(=O)O)coc23)CC1 [Compound 121f, 2-(2-((5-(3-(aminomethyl)phenyl)-7-((4-(tert-butoxycarbonyl)piperazin-1-yl)methyl)benzofuran-3-yl)methoxy)phenyl)acetic acid]",< 1000
13,"NCc1cccc(-c2cc(Cn3ccnc3)c3occ(COc4ccccc4CC(=O)O)c3c2)c1 [Compound 155e, 2-(2-((7-((1H-imidazol-1-yl)methyl)-5-(3-(aminomethyl)phenyl)benzofuran-3-yl)methoxy)phenyl)acetic acid]",< 1000
14,"NCc1cccc(-c2cc3c(COc4ccccc4CC(=O)O)cccc3o2)c1 [Compound 282f, 2-(2-((2-(3-(aminomethyl)phenyl)benzofuran-4-yl)methoxy)phenyl)acetic acid]",< 1000
15,"COc1ccc(CC(=O)O)c(OCc2c3cc(-c4cccc(CN)c4)ccc3nn2C)c1 [Compound 210c, 2-(2-((5-(3-(aminomethyl)phenyl)-2-methyl-2H-indazol-3-yl)methoxy)-4-methoxyphenyl)acetic acid]",< 1000
16,"Cc1cc(-c2cccc(CN)c2)cc2c(COc3ccccc3CC(=O)O)coc12 [Compound 17e, 2-(2-((5-(3-(aminomethyl)phenyl)-7-methylbenzofuran-3-yl)methoxy)phenyl)acetic acid]",< 1000
17,"NCc1cccc(-c2cc3c(COc4ccccc4CC(=O)O)csc3c3occc23)c1 [Compound 232h, 2-(2-((4-(3-(aminomethyl)phenyl)thieno[3,2-g]benzofuran-6-yl)methoxy)phenyl)acetic acid]",< 1000

# More lines, now with the values ahead:
row,IC50 [nM],Compound
1,< 1000,"Cc1cccc(OCc2coc3ccc(-c4cccc(CN)c4)cc23)c1CC(=O)O [Compound 108d, 2-(2-((5-(3-(aminomethyl)phenyl)benzofuran-3-yl)methoxy)-6-methylphenyl)acetic acid]"
2,< 1000,"CC(C)CNc1cc(-c2cccc(CN)c2)cc2c(COc3ccccc3CC(=O)O)coc12 [Compound 151d, 2-(2-((5-(3-(aminomethyl)phenyl)-7-(isobutylamino)benzofuran-3-yl)methoxy)phenyl)acetic acid]"
3,< 1000,"COc1cc(-c2cccc(CN)c2)cc2c(COc3ccccc3CC(=O)O)coc12 [Compound 18e, 2-(2-((5-(3-(aminomethyl)phenyl)-7-methoxybenzofuran-3-yl)methoxy)phenyl)acetic acid]"
4,< 1000,"COc1ccc(CC(=O)O)c(OCc2c(C(C)C)oc3ccc(-c4cccc(CN)c4)cc23)c1 [Compound 169c, 2-(2-((5-(3-(aminomethyl)phenyl)-2-isopropylbenzofuran-3-yl)methoxy)-4-methoxyphenyl)acetic acid]"
5,< 1000,"COc1ccc(CC(=O)O)c(OCc2c(C(=O)O)sc3ccc(-c4cccc(CN)c4)cc23)c1 [Compound 62c, 5-(3-(aminomethyl)phenyl)-3-((2-(carboxymethyl)-5-methoxyphenoxy)methyl)benzo[b]thiophene-2-carboxylic acid]"
6,< 1000,"COc1ccc(CC(=O)O)c(OCc2c(C)oc3ccc(-c4cccc(CN)c4)cc23)c1 [Compound 138c, 2-(2-((5-(3-(aminomethyl)phenyl)-2-methylbenzofuran-3-yl)methoxy)-4-methoxyphenyl)acetic acid]"
7,< 1000,"NCc1cccc(-c2ccc3ncc(COc4ccccc4CC(=O)O)n3c2)c1 [Compound 65e, 2-(2-((6-(3-(aminomethyl)phenyl)imidazo[1,2-a]pyridin-3-yl)methoxy)phenyl)acetic acid]"
8,< 1000,"COc1ccc(CC(=O)O)c(OCc2c(C(C)C)oc3c(NCC4CC4)cc(-c4cccc(CN)c4)cc23)c1 [Compound 295h, 2-(2-((5-(3-(aminomethyl)phenyl)-7-((cyclopropylmethyl)amino)-2-isopropylbenzofuran-3-yl)methoxy)-4-methoxyphenyl)acetic acid]"
9,< 1000,"COc1ccc(OCc2coc3ccc(-c4cccc(CN)c4)cc23)c(CC(=O)O)c1 [Compound 106c, 2-(2-((5-(3-(aminomethyl)phenyl)benzofuran-3-yl)methoxy)-5-methoxyphenyl)acetic acid]"
10,< 1000,"NCc1cccc(-c2cc(NCC3CCOC3)c3occ(COc4ccccc4CC(=O)O)c3c2)c1 (stereo not drawn) [Compound 147d, 2-(2-((5-(3-(aminomethyl)phenyl)-7-(((tetrahydrofuran-3-yl)methyl)amino)benzofuran-3-yl)methoxy)phenyl)acetic acid]"
11,< 1000,"COc1ccc(CC(=O)O)c(OCc2coc3c(C(F)(F)F)cc(-c4cccc(CN)c4)cc23)c1 [Compound 270c, 2-(2-((5-(3-(aminomethyl)phenyl)-7-(trifluoromethyl)benzofuran-3-yl)methoxy)-4-methoxyphenyl)acetic acid]"
12,< 1000,"NCc1cccc(-c2cc(COc3ccccc3CC(=O)O)cc3cc(CCOc4ccccc4CC(=O)O)oc23)c1 [Compound 20j, 2-(2-((7-(3-(aminomethyl)phenyl)-2-(2-(2-(carboxymethyl)phenoxy)ethyl)benzofuran-5-yl)methoxy)phenyl)acetic acid]"
13,1000 to 10000,"CC(C)n1nc(COc2ccccc2CC(=O)O)c2cc(-c3cc(CN)cc(C4CC4)c3)ccc21 [Compound 331e, 2-(2-((5-(3-(aminomethyl)-5-cyclopropylphenyl)-1-isopropyl-1H-indazol-3-yl)methoxy)phenyl)acetic acid]"
